The test system of data set [1] is Ewing's sarcoma cells (CHP-100). The note with it: 72 hours, MTT, FIG. 5.
Excerpt: Relative viable cell number was quantified by MTT assay. Results are presented as a percentage compared to wells exposed to DMSO alone. […] Points: mean of triplicate determinations; Error bars: s.d.
For data set [2], the system named is Human umbilical vein endothelial cells (HUVEC). In words: Endothelial cell network (tube) formation on Matrigel. Particulars: 16 h, FIG. 6. In kind it is cell-based. How it is done: FIG. 6. […] Human umbilical vein endothelial cells (HUVEC) were seeded into Matrigel-coated wells and allowed to adhere for 1 h. Adherent cells were exposed to the indicated concentrations of withaferin A, epi-withaferin A (α-WA) or an equal volume of solvent vehicle (DMSO) for 16 h. Cells were washed 1× in PBS and fixed to visualize tube formation by light microscopy.

The test system of data set [3] is PC-3M (metastatic prostate cancer). In words: Proliferation/survival assay, PC-3M. The note with it: same time dependence as in MCF-7. It counts as cell-based. The procedure: (§1) A standard tetrazolium dye [3-(4,5-di-methylthiazol-2-yl)-2,5-diphenyltetrazoliumbromide; MTT]-based colorimetric assay was used to measure the proliferation/survival of cells in triplicate wells using a 96-well plate-based format. […] Cells were exposed continuously to test compounds for 24 or 72 h at which times related viable cell number per well was determined as previously described (Wijeratne, et al., J Nat. Prod. (2003) 66: 1567-1573, incorporated herein by reference).

For data set [4], the system named is MCF-7 breast cancer cells. Kind of data set: MTT proliferation/survival (cytotoxicity) assay, MCF-7. In kind it is cell-based.
Excerpt: FIG. 1. Concentration- and time-dependent cell proliferation/survival inhibition by 2,3-dihydrowithaferin A-3β-O-sulfate (WA-SO4) and withaferin A (WA). MCF-7 breast cancer cells were exposed to the indicated concentrations of compounds and relative viable cell number determined by dye reduction assay after the time intervals noted. Data are representative of three independent experiments.
as §1

For data set [5], the system named is minimal heat shock response element derived from the promoter region of the Hsp70B gene. In words: Heat shock reporter (EGFP) induction. In kind it is cell-based. The note with it: overnight exposure, FIG. 8. How it is done:
FIG. 8. Heat shock reporter induction measured by micro plate fluorimeter. Reporter cells stably transduced with a plasmid encoding enhanced green fluorescent protein (EGFP) under the control of a minimal heat shock response element were exposed to 2,3-dihydrowithaferin A-3β-O-sulfate (WA-SO4) or withaferin A (WA) at the indicated concentrations overnight. Relative fluorescence units (RFU) per well were determined as a measure of reporter activation. Each point represents the mean of nine determinations from three independent experiments.
Immortalized mouse embryo fibroblasts derived from homozygous Hsf1 knockout mice or their wild type littermates were exposed overnight to equitoxic concentrations of 1 or the known heat shock-inducing Hsp90 inhibitor gendanamycin. Whole cell lysates were prepared in non-ionic detergent buffer and immunoblotted for relative levels of Hsp72, a highly inducible member of the Hsp70 family of molecular chaperones, using monoclonal antibody C92F3A-5 (StressMarq Biosciences, Victoria, BC). Reactivity was detected using peroxidase-conjugated secondary antibody and chemiluminescent detection. To evaluate the relative ability of compounds to induce a heat shock response at the transcriptional level, a reporter cell line was used as previously described (Turbyville, et al., J. Nat. Prod. (2006) 69: 178-184, incorporated herein by reference). […]

The subject of another data set is WI-38 fibroblasts. Kind of data set: Detection of F-actin aggregation (phalloidin staining). In kind it is cell-based, Human. Particulars: 4 μM, 4 or 24 h, FIG. 3. The procedure: FIGS. 3A-3D. Induction of F-actin aggregation. Following incubation with test compounds for the indicated intervals, WI-38 fibroblasts were fixed and stained with fluorescently-labeled phalloidin (green signal) to visualize the actin cytoskeleton. Cells were counterstained with DAPI (blue signal) to identify their nuclei. All images were acquired using the same magnification and exposure conditions. Data are representative of two independent experiments. (A) DMSO, 24 h incubation. (B) Withaferin A, 4 h. (C) 2,3-Dihydrowithaferin A-3β-O-sulfate, 4 h. (D) 2,3-Dihydrowithaferin A-3β-O-sulfate, 24 h.
Cells were seeded in 8-well chamber slides at a density of 2×10^4 cells per well and allowed to adhere for 48 h. Compounds 1 and 2 were freshly prepared as 5 mM stock solutions in DMSO and applied to cells at a final concentration of 4 μM in RPMI culture medium supplemented with 10% fetal bovine serum, Glutamax™, and penicillin/streptomycin. Control wells were treated with an equal volume of DMSO, not exceeding 0.2% in culture media. Cells were incubated for 4 or 24 h in the continuous presence of the indicated compounds, then washed twice with PBS, fixed with 4% paraformaldehyde/PBS (pH 7.6), and permabilized with 0.1% triton-X 100/PBS. […]

Data set [6] in a line: Conversion of 2,3-dihydrowithaferin A-3β-O-sulfate to withaferin A in cell culture media (HPLC). It counts as physicochemical. Particulars: DMEM + 10% fetal bovine serum, 37° C., 4, 16, 24 h, FIG. 2. The procedure:
FIGS. 2A and 2B. Conversion of 2,3-dihydrowithaferin A-3β-O-sulfate (solid circles) to withaferin A (solid squares) in cell culture medium. (A) Incubation of 2,3-dihydrowithaferin A-3β-O-sulfate in DMEM supplemented with 10% fetal bovine serum. (B) Incubation in cysteine/methionine-free DMEM supplemented with 10% fetal bovine serum. The concentration of 2,3-dihydrowithaferin A-3β-O-sulfate (solid circles) and its conversion to withaferin A (solid squares) was measured over time by HPLC using an external standard curve method.
Stock solutions of 2,3-dihydrowithaferin A-3β-O-sulfate in DMSO (50 μL) were diluted into cell culture medium (950 μL) to achieve the indicated starting concentration, mixed thoroughly and the solution incubated in a CO2 incubator at 37° C. Aliquots (100 μL) were withdrawn at 4, 16, and 24 h and subjected to HPLC analysis for 2,3-dihydrowithaferin A-3β-O-sulfate (RRT=18.5 min) and withaferin A (RRT=23.5 min) on a Kromasil C18 RP column (250×4.6 mm, […]) with gradient elution using 40-100% aqueous MeOH and using an ELSD detector. An external standard curve method was used to calculate the concentration of each compound in the sampled aliquots (Khajuria, et al., J Sep. Sci. (2004) 27: 541-546, incorporated herein by reference).

The subject of data set [7] is NCI-H460 (non small cell lung). In words: Proliferation/survival assay, NCI-H460. In kind it is cell-based. Particulars: same time dependence as in MCF-7. How it is done:
as §1

`CC1=C(CO)C(=O)OC([C@@H](C)C2CCC3C4C[C@H]5O[C@]56[C@H](O)C=CC(=O)[C@]6(C)C4CC[C@@]32C)C1` (stereo partly drawn) [epi-withaferin A]: the “inhibition of tumor cell growth in vitro, CHP-100” value in data set [1] is recorded as “Concentration-dependent inhibition of tumor cell growth in vitro”. Further, the “inhibition of endothelial cell network formation” value in data set [2] is recorded as “Inhibition of endothelial cell network formation”.

As to `CC1=C(CO)C(=O)OC(C(C)C2CC[C@H]3[C@@H]4C[C@H]5O[C@]56[C@@H](O)[C@@H](OS(=O)(=O)O)CC(=O)[C@]6(C)[C@H]4CC[C@]23C)C1` (stereo partly drawn) [2,3-dihydrowithaferin A-3β-O-sulfate], the “proliferation/survival inhibition compared with withaferin A, PC-3M” value in data set [3] is “same results”. In addition, the “potency compared with withaferin A, MCF-7” value in data set [4] (after ca. 72 hours) was “equipotent with withaferin A”. In addition, the “inhibition of the proliferation/survival of MCF-7 breast cancer cells” value in data set [4] (dye reduction (MTT) assay, 24 or 72 h, FIG. 1) was “concentration- and time-dependent inhibition”. For the same compound, in data set [5], the “heat shock reporter induction” value was “induces a robust heat shock response after overnight treatment of cells, albeit at higher concentrations than that of withaferin A”. Further, the “induction of F-actin aggregation” value with WI-38 fibroblasts is listed as “induced F-actin aggregation, but dihydrowithaferin A-3β-O-sulfate required a longer period of time”. In data set [6], the “conversion to withaferin A in cell culture media” value is reported as “conversion of dihydrowithaferin A-3β-O-sulfate to withaferin A in cell culture media”. In addition, in data set [7], the “proliferation/survival inhibition compared with withaferin A, NCI-H460” value is “same results”.

The values above are taken from patent publication US20170066797A1, “WITHAFERIN A ANALOGS AND USES THEREOF” (Whitehead Institute for Biomedical Research, priority 2008, published 2017).
